These results are taken from PubChem BioAssay (NCI).

Some test systems named below: UO-31 renal; KM12 colon; LOX IMVI melanoma; K-562 leukemia; SK-MEL-5 melanoma; SR leukemia; COLO 205 colon; A498 renal; NCI-H460 lung; HT29 colon; M14 melanoma; SF-295 CNS; HS 578T breast; IGROV1 ovarian; UACC-257 melanoma; A549 NSCLC; SK-MEL-28 melanoma; OVCAR-4 ovarian; EKVX NSCLC.
What all share (assay): NCI tumour cell line growth inhibition, 48 h

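These data come from cells grown in 96-well plates and exposed to compound for 48 hours at five concentrations. TGI: concentration producing complete growth inhibition.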

As for `CC(C)=Cc1cc(C)c2c3c(c(O)c(O)c(C)c13)C(C)=CC2=O`, the TGI in the assay on UO-31 renal was > 100 µM; in the assay with KM12 colon, 45.8 µM; in the assay on LOX IMVI melanoma, 38 µM; in the assay on K-562 leukemia, > 100 µM; in the assay on SK-MEL-5 melanoma it was 35 µM; in the assay on SR leukemia it was 78.1 µM. Moreover, the TGI stood at 26.6 µM in the assay with COLO 205 colon; 47.5 µM with A498 renal; 55.9 µM in the assay with NCI-H460 lung; 32.1 µM with HT29 colon; 48.9 µM with M14 melanoma; 48.6 µM in the assay with SF-295 CNS. In addition, the TGI in the assay with HS 578T breast is 74.4 µM; in the assay with IGROV1 ovarian, > 100 µM; in the assay on UACC-257 melanoma, > 100 µM; with A549 NSCLC it was 56 µM.

Regarding `COc1ccc2c(c1)c1c(n2CCN2CCOCC2)-c2cccc(OC)c2CC1`, the TGI in the assay on UO-31 renal was > 100 µM; in the assay with KM12 colon, 53.1 µM; with K-562 leukemia it was > 100 µM; with SK-MEL-5 melanoma, > 100 µM; in the assay on SR leukemia, 35.3 µM; in the assay with COLO 205 colon, 28.5 µM. Further, the TGI in the assay on A498 renal was > 100 µM; in the assay with NCI-H460 lung, > 100 µM; in the assay with HT29 colon it was 32.2 µM; in the assay with M14 melanoma it was > 100 µM; in the assay with SF-295 CNS it was > 100 µM; with SK-MEL-28 melanoma, > 100 µM. For the same molecule, the TGI with OVCAR-4 ovarian, with HS 578T breast, in the assay with IGROV1 ovarian, with UACC-257 melanoma and in the assay on A549 NSCLC was > 100 µM throughout.

For `O=C1NC(N2CCCC(CO)C2)=N/C1=C\c1ccccc1` (stereo not drawn), the TGI in the assay with UO-31 renal, in the assay with KM12 colon, with LOX IMVI melanoma, in the assay with SK-MEL-5 melanoma, with SR leukemia and with COLO 205 colon was > 100 µM throughout. Besides, the TGI in the assay with HT29 colon, in the assay with M14 melanoma, with SF-295 CNS, with SK-MEL-28 melanoma, with OVCAR-4 ovarian and in the assay on HS 578T breast was > 100 µM each time. For the same molecule, the TGI with IGROV1 ovarian, with EKVX NSCLC, with UACC-257 melanoma and with A549 NSCLC was > 100 µM each time.

On to `CNCCN[C@@H]1c2cc3c(cc2[C@@H](c2cc(OC)c(O)c(OC)c2)[C@H]2C(=O)OC[C@@H]21)OCO3`, for which the TGI in the assay with UO-31 renal was 4.96 µM; in the assay on KM12 colon, 4.47 µM; in the assay with LOX IMVI melanoma, 1.35 µM; in the assay on K-562 leukemia, > 100 µM; in the assay on SK-MEL-5 melanoma it was 1.16 µM; in the assay on SR leukemia it was 0.287 µM. For the same molecule, the TGI in the assay on COLO 205 colon was 12 µM; in the assay on HT29 colon, 1.89 µM; with M14 melanoma, 4.68 µM; in the assay on SF-295 CNS it was 1.07 µM; in the assay on SK-MEL-28 melanoma it was 3.31 µM; in the assay with OVCAR-4 ovarian, > 100 µM. The TGI with HS 578T breast was found to be 1.34 µM; with IGROV1 ovarian, 2.63 µM; in the assay with EKVX NSCLC, 22.7 µM; in the assay on UACC-257 melanoma it was 7.61 µM.

As to `CC(C)(C)c1cc2c(c(C(C)(C)C)c1O)CC(=O)O2`, the TGI is 66.6 µM with UO-31 renal; 64.6 µM in the assay on KM12 colon; > 100 µM in the assay with LOX IMVI melanoma; > 100 µM in the assay on K-562 leukemia; 32.2 µM in the assay with SK-MEL-5 melanoma; 37.6 µM in the assay on COLO 205 colon. In addition, the TGI is 94.7 µM with A498 renal; > 100 µM in the assay with NCI-H460 lung; > 100 µM with HT29 colon; 62.5 µM with M14 melanoma; 85.7 µM in the assay with SF-295 CNS; > 100 µM in the assay on SK-MEL-28 melanoma. In addition, the TGI was > 100 µM in the assay with OVCAR-4 ovarian; 97.3 µM with HS 578T breast; 89.3 µM in the assay on IGROV1 ovarian; > 100 µM in the assay with EKVX NSCLC; 75.7 µM in the assay with UACC-257 melanoma; > 100 µM in the assay on A549 NSCLC.

In the case of `COc1cccc2c1C1(O)C2CCCCCCCCCC12OCCCO2` (stereo not drawn), the TGI with UO-31 renal is > 100 µM; with KM12 colon, > 100 µM; in the assay on LOX IMVI melanoma, > 61.8 µM; with K-562 leukemia, > 100 µM; in the assay with SK-MEL-5 melanoma, > 100 µM; in the assay with SR leukemia, 35.6 µM. The TGI in the assay with COLO 205 colon is > 100 µM; in the assay on A498 renal, > 100 µM; in the assay with NCI-H460 lung, > 59.5 µM; with HT29 colon it was > 59.2 µM; in the assay on M14 melanoma, > 100 µM; in the assay with SF-295 CNS, > 86.9 µM. Further, the TGI in the assay with SK-MEL-28 melanoma, with OVCAR-4 ovarian, in the assay on HS 578T breast, with IGROV1 ovarian, in the assay with UACC-257 melanoma and in the assay with A549 NSCLC was > 100 µM each time.

Consider `N#Cc1cc2c(cc1C#N)/C(=N\c1cccc(N)n1)N=C2Nc1cccc(N)n1`, for which the TGI with UO-31 renal was 47 µM; in the assay on KM12 colon, > 100 µM; in the assay with LOX IMVI melanoma, > 100 µM; with K-562 leukemia, > 100 µM; with SK-MEL-5 melanoma it was 22.1 µM; in the assay on SR leukemia, > 100 µM. Further, the TGI in the assay with COLO 205 colon was 51.9 µM; in the assay with NCI-H460 lung it was > 100 µM; with HT29 colon it was 85.7 µM; with M14 melanoma it was 34.1 µM; in the assay on SF-295 CNS it was > 100 µM; in the assay on SK-MEL-28 melanoma, 48.7 µM. Besides, the TGI in the assay with HS 578T breast, in the assay on IGROV1 ovarian, in the assay on EKVX NSCLC, in the assay with UACC-257 melanoma and in the assay with A549 NSCLC was > 100 µM each time.

For `O=c1cc(-c2ccccc2)[nH]c2ccc(S)cc12`, the TGI in the assay with KM12 colon is > 100 µM; in the assay with K-562 leukemia, > 100 µM; in the assay on SK-MEL-5 melanoma, 29.5 µM; with SR leukemia, > 100 µM; in the assay on COLO 205 colon it was > 100 µM; in the assay on NCI-H460 lung, > 100 µM. The TGI in the assay on HT29 colon is 93.1 µM; in the assay with M14 melanoma, 84.8 µM; in the assay with SF-295 CNS, > 100 µM; in the assay on SK-MEL-28 melanoma, 64.6 µM; in the assay with OVCAR-4 ovarian it was > 100 µM; in the assay on HS 578T breast, > 100 µM. Also, the TGI in the assay on IGROV1 ovarian, in the assay with UACC-257 melanoma and in the assay with A549 NSCLC was > 100 µM in each case.
